Reference: patent US8192962B2, “Processes for detecting toxic substances” (Daikin Industries, Ltd., priority 2001, dated 2012)

Test system: Detoxification protein genes
Assay: DNA chip mRNA expression in yeast, detoxification protein genes (Table 8)
Format: cell-based, Saccharomyces cerevisiae S288C
In short: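 Expression change after 2 h toxicant exposure (growth-inhibiting, sub-lethal) of log-phase S. cerevisiae S288C at 25° C. Oligo-dT-purified mRNA was labeled with Cy3-dUTP or Cy5-dUTP and hybridized >12 h at 65° C. to a genome-wide chip; ratio of scanned fluorescence to control.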

COc1cc(CNC(=O)CCCCC=CC(C)C)ccc1O [(12), 8-methyl-N-vanillyl-6-nonenamide]
The level of expressed mRNA in the presence of chemical substance/The level of expressed mRNA in the absence of chemical substance (yeast gene YBL064C): 1.7 | The level of expressed mRNA in the presence of chemical substance/The level of expressed mRNA in the absence of chemical substance (yeast gene YBR008C): 0.8 | The level of expressed mRNA in the presence of chemical substance/The level of expressed mRNA in the absence of chemical substance (yeast gene YBR145W): 1.0 | The level of expressed mRNA in the presence of chemical substance/The level of expressed mRNA in the absence of chemical substance (yeast gene YBR244W): 0.5 | The level of expressed mRNA in the presence of chemical substance/The level of expressed mRNA in the absence of chemical substance (yeast gene YBR293W): 1.0 | The level of expressed mRNA in the presence of chemical substance/The level of expressed mRNA in the absence of chemical substance (yeast gene YCL035C): 1.5 | The level of expressed mRNA in the presence of chemical substance/The level of expressed mRNA in the absence of chemical substance (yeast gene YCL069W): 0.9 | The level of expressed mRNA in the presence of chemical substance/The level of expressed mRNA in the absence of chemical substance (yeast gene YCR083W): 1.1 | The level of expressed mRNA in the presence of chemical substance/The level of expressed mRNA in the absence of chemical substance (yeast gene YDL100C): 1.5 | The level of expressed mRNA in the presence of chemical substance/The level of expressed mRNA in the absence of chemical substance (yeast gene YDL168W): 0.6 | The level of expressed mRNA in the presence of chemical substance/The level of expressed mRNA in the absence of chemical substance (yeast gene YDR256C): 0.8 | The level of expressed mRNA in the presence of chemical substance/The level of expressed mRNA in the absence of chemical substance (yeast gene YDR453C): 0.9 | The level of expressed mRNA in the presence of chemical substance/The level of expressed mRNA in the absence of chemical substance (yeast gene YDR513W): 0.9 | The level of expressed mRNA in the presence of chemical substance/The level of expressed mRNA in the absence of chemical substance (yeast gene YDR538W): 0.7 | The level of expressed mRNA in the presence of chemical substance/The level of expressed mRNA in the absence of chemical substance (yeast gene YEL027W): 0.9 | The level of expressed mRNA in the presence of chemical substance/The level of expressed mRNA in the absence of chemical substance (yeast gene YEL065W): 1.7 | The level of expressed mRNA in the presence of chemical substance/The level of expressed mRNA in the absence of chemical substance (yeast gene YER185W): 1.1 | The level of expressed mRNA in the presence of chemical substance/The level of expressed mRNA in the absence of chemical substance (yeast gene YFL050C): 0.9 | The level of expressed mRNA in the presence of chemical substance/The level of expressed mRNA in the absence of chemical substance (yeast gene YGL013C): 1.0 | The level of expressed mRNA in the presence of chemical substance/The level of expressed mRNA in the absence of chemical substance (yeast gene YGL254W): 1.2 | The level of expressed mRNA in the presence of chemical substance/The level of expressed mRNA in the absence of chemical substance (yeast gene YGR088W): 1.1 | The level of expressed mRNA in the presence of chemical substance/The level of expressed mRNA in the absence of chemical substance (yeast gene YGR138C): 0.6 | The level of expressed mRNA in the presence of chemical substance/The level of expressed mRNA in the absence of chemical substance (yeast gene YGR197C): 1.2 | The level of expressed mRNA in the presence of chemical substance/The level of expressed mRNA in the absence of chemical substance (yeast gene YGR209C): 0.9 | The level of expressed mRNA in the presence of chemical substance/The level of expressed mRNA in the absence of chemical substance (yeast gene YGR224W): 0.6 | The level of expressed mRNA in the presence of chemical substance/The level of expressed mRNA in the absence of chemical substance (yeast gene YHL040C): 2.0 | The level of expressed mRNA in the presence of chemical substance/The level of expressed mRNA in the absence of chemical substance (yeast gene YHL047C): 2.6 | The level of expressed mRNA in the presence of chemical substance/The level of expressed mRNA in the absence of chemical substance (yeast gene YHR008C): 0.7 | The level of expressed mRNA in the presence of chemical substance/The level of expressed mRNA in the absence of chemical substance (yeast gene YHR048W): 0.9 | The level of expressed mRNA in the presence of chemical substance/The level of expressed mRNA in the absence of chemical substance (yeast gene YHR053C): 1.1 | The level of expressed mRNA in the presence of chemical substance/The level of expressed mRNA in the absence of chemical substance (yeast gene YHR055C): 1.2 | The level of expressed mRNA in the presence of chemical substance/The level of expressed mRNA in the absence of chemical substance (yeast gene YIR002C): 1.3 | The level of expressed mRNA in the presence of chemical substance/The level of expressed mRNA in the absence of chemical substance (yeast gene YIR038C): 1.1 | The level of expressed mRNA in the presence of chemical substance/The level of expressed mRNA in the absence of chemical substance (yeast gene YJL101C): 0.7 | The level of expressed mRNA in the presence of chemical substance/The level of expressed mRNA in the absence of chemical substance (yeast gene YJR104C): 0.9 | The level of expressed mRNA in the presence of chemical substance/The level of expressed mRNA in the absence of chemical substance (yeast gene YKL026C): 1.0 | The level of expressed mRNA in the presence of chemical substance/The level of expressed mRNA in the absence of chemical substance (yeast gene YKL064W): 0.7 | The level of expressed mRNA in the presence of chemical substance/The level of expressed mRNA in the absence of chemical substance (yeast gene YKR066C): 0.9 | The level of expressed mRNA in the presence of chemical substance/The level of expressed mRNA in the absence of chemical substance (yeast gene YKR105C): 0.8 | The level of expressed mRNA in the presence of chemical substance/The level of expressed mRNA in the absence of chemical substance (yeast gene YKR106W): 0.8 | The level of expressed mRNA in the presence of chemical substance/The level of expressed mRNA in the absence of chemical substance (yeast gene YLL028W): 1.3 | The level of expressed mRNA in the presence of chemical substance/The level of expressed mRNA in the absence of chemical substance (yeast gene YLL057C): 0.7 | The level of expressed mRNA in the presence of chemical substance/The level of expressed mRNA in the absence of chemical substance (yeast gene YLL060C): 1.1 | The level of expressed mRNA in the presence of chemical substance/The level of expressed mRNA in the absence of chemical substance (yeast gene YLR043C): 0.8 | The level of expressed mRNA in the presence of chemical substance/The level of expressed mRNA in the absence of chemical substance (yeast gene YLR046C): 0.8 | The level of expressed mRNA in the presence of chemical substance/The level of expressed mRNA in the absence of chemical substance (yeast gene YML028W): 1.6 | The level of expressed mRNA in the presence of chemical substance/The level of expressed mRNA in the absence of chemical substance (yeast gene YML116W): 0.5 | The level of expressed mRNA in the presence of chemical substance/The level of expressed mRNA in the absence of chemical substance (yeast gene YMR015C): 0.9 | The level of expressed mRNA in the presence of chemical substance/The level of expressed mRNA in the absence of chemical substance (yeast gene YMR038C): 0.9 | The level of expressed mRNA in the presence of chemical substance/The level of expressed mRNA in the absence of chemical substance (yeast gene YNL239W): 1.5 | The level of expressed mRNA in the presence of chemical substance/The level of expressed mRNA in the absence of chemical substance (yeast gene YNL241C): 2.0 | The level of expressed mRNA in the presence of chemical substance/The level of expressed mRNA in the absence of chemical substance (yeast gene YNL259C): 0.7 | The level of expressed mRNA in the presence of chemical substance/The level of expressed mRNA in the absence of chemical substance (yeast gene YOL158C): 0.9 | The level of expressed mRNA in the presence of chemical substance/The level of expressed mRNA in the absence of chemical substance (yeast gene YOR031W): 0.8 | The level of expressed mRNA in the presence of chemical substance/The level of expressed mRNA in the absence of chemical substance (yeast gene YOR153W): 4.0 | The level of expressed mRNA in the presence of chemical substance/The level of expressed mRNA in the absence of chemical substance (yeast gene YOR247W): 0.6 | The level of expressed mRNA in the presence of chemical substance/The level of expressed mRNA in the absence of chemical substance (yeast gene YOR251C): 0.9 | The level of expressed mRNA in the presence of chemical substance/The level of expressed mRNA in the absence of chemical substance (yeast gene YOR273C): 0.8 | The level of expressed mRNA in the presence of chemical substance/The level of expressed mRNA in the absence of chemical substance (yeast gene YPL163C): 0.9 | The level of expressed mRNA in the presence of chemical substance/The level of expressed mRNA in the absence of chemical substance (yeast gene YPR200C): 0.4
